# Data from patent US6635265B1, “Materials and methods useful for the control of insect larvae” (University of Florida Research Foundation, Inc., priority 1999, dated 2003).
# Square brackets hold non-standard residues; d marks the D form. Ends that are not written are not given here.
# Assays:
# [1] = test system: mosquito larvae; assay: Feeding TMOF and its analogue peptides to mosquito larvae (LD50); assay type: in vivo, Aedes aegypti; conditions: 100 μl microtiter plates, 7 days, diet of autoclaved yeast (1 mg/ml)
# From the text: TMOF can traverse the gut epithelium, enter the hemolymph and bind a gut receptor (Borovsky, D. and F. Mahmood (1995) “Feeding the mosquito Aedes aegypti with TMOF and its analogs; effect on trypsin biosynthesis and egg development,” Regulatory Peptides 57:273-281.; Borovsky, D., C. A. Powell, J. K. Nayar, J. E. Blalock, and T. K. Hayes (1994) “Characterization and localization of mosquito-gut receptors for trypsin modulating oostatic factor using complementary peptide immunochemistry” FASEB J. 8:350-355.). […] This characteristic permits testing of TMOF and its analogs by feeding them to mosquito and other pest larvae. To determine whether truncated TMOF peptides have an effect on larval growth and development, a series of peptides were synthesized and tested by feeding them to mosquito larvae at concentrations of 0.5 to 5.0 mg/ml (Table 1). Individual, newly hatched Aedes aegypti larvae were maintained in separate microtiter wells on a diet of autoclaved yeast (1 mg/ml). The diet was supplemented with TMOF peptides (Table 1). An identical number of larvae which were maintained on yeast served as a control. […] All control groups survived and larval growth and development was normal. Since larvae swallow only a small portion of the yeast particles that adsorbed the peptides, it is assumed that approximately 1 to 20 ng are taken orally at the high concentrations.
# [2] = test system: first instar H. virescens larvae; assay: Feeding of first instar H. virescens on TMOF analogs for 14 days; assay type: in vivo, Heliothis virescens; conditions: first instar larvae fed individually 1.6 µg of TMOF analogs for 14 days
# [3] = test system: fourth instar Heliothis virescens; assay: Feeding TMOF analogs to fourth instar H. virescens: larval weight; assay type: in vivo; conditions: for Weight Gain / Weight mg ± S.E.M. End: fourth instar larvae fed synthetic food and 0.8 mg of TMOF analogs for 5 days; for larval weight and trypsin biosynthesis (in words): fourth instar larvae fed TMOF analog peptides for 5 days
# Experimental: In both cases a reduction in weight gain and trypsin inhibition was noted (Tables 3 and 4).
# (§1) Larvae were fed for 5 to 14 days and larval weight and trypsin activity were measured at the end of the experimental periods. […] When first instar larvae were fed for 14 days on analogs 15 and 16 (Table 4), an 18% and 26% reduction in weight was observed.
# [4] = test system: trypsin biosynthesis; assay: Feeding TMOF analogs to fourth instar H. virescens: gut trypsin biosynthesis ([3H]DFP); assay type: in vivo, Heliothis virescens; conditions: guts of fourth instar larvae after 5 days feeding on 0.8 mg of TMOF analogs
# Experimental: as §1
# [5] = test system: trypsin biosynthesis; assay: Injecting TMOF-R analogues into second instar Heliothis virescens: trypsin biosynthesis (BApNA); assay type: in vivo; conditions: second instar larvae, 24 hours after injection
# Experimental: TMOF analogues (5 to 8 amino acids in length, and polymers of these analogues) in which Arg was added at the C-terminus were evaluated to determine their effect on larval growth and development. A series of analogues were synthesized and tested by feeding them to mosquito larvae at concentrations of (0.5 to 5.0 mg/ml; Table 4). Concentrations of 2.0 to 0.065 mg/ml were used to feed mosquito larvae and calculate the Lethal Dose at 50% mortality (LD50; Table 4) of the TMOF analogues. […] In both cases larval death and trypsin biosynthesis inhibition was noted (Table 4 and 5). […] The advantage of using short analogues connected by Arg is that they can be digested in the gut into short TMOF analogues that can penetrate the midgut much faster than longer analogues.
# Individual second instar larvae of H. virescens were injected with TMOF-R analogues (10 to 0.25 μg per larva) and maintained in separate plastic cups on artificial diet. Twenty-four hours after the injections 3 groups of larvae (3 per group) were assayed for trypsin biosynthesis using BApNA (trypsin specific substrate; Table 5).
# [6] = test system: first instar larvae S. exigua; assay: Inhibition of Spodoptera exigua larval growth by feeding of TMOF; assay type: in vivo
# Experimental: The x-axis represents the TMOF concentration and the y-axis represents percentage of growth inhibition.
# Individual, first instar larvae S. exigua were maintained in separate petri dishes and were fed on artificial diet blocks of 50 mg on which different concentrations of TMOF (0 to 100 μg) were adsorbed. Larvae were fed for 6 days and larval length was measured every 24 hours and compared with controls that were not fed TMOF. Each experiment was repeated 10 times.
substance,measurement,setting,value
ADPAP (TMOF peptide) [18],LD50 mM ± S.E.M.,[1],4 2.0 ± 0.36 mM
YDPLP (TMOF peptide) [49],LD50 mM ± S.E.M.,[1],3 1.5 ± 0.04 mM
YDF (TMOF peptide) [38],LD50 mM ± S.E.M.,[1],3 0.97 ± 0.11 mM
DYP (TMOF peptide) [24],Number of Dead Larvae,[2],1
same,Weight (mg) ± S.E.M.,[2],149 ± 9 mg
same,Weight Reduction (%) ± S.E.M.,[2],9 ± 0.5%
same,Weight Gain,[3],180.5 mg
same,Weight mg ± S.E.M. End,[3],216.7 ± 13 mg
same,Inhibition (% ± S.E.M.) of trypsin biosynthesis,[4],14 ± 1.8%
same,Trypsin μg ± S.E.M.,[4],2.2 ± 0.3 µg
same,LD50 mM ± S.E.M.,[1],4 1.27 ± 0.17 mM
YDPAR (TMOF-R analogue peptide) [59],Inhibition (% ± S.E.M.) of trypsin biosynthesis,[5]; 0.5 μg/injection,1 ± 0.07%
same,Inhibition (% ± S.E.M.) of trypsin biosynthesis,[5]; 1 μg/injection,39 ± 2%
same,Inhibition (% ± S.E.M.) of trypsin biosynthesis,[5]; 10 μg/injection,33.5 ± 9%
YDPAP (TMOF peptide) [11],LD50 mM ± S.E.M.,[1],3 1.64 ± 0.03 mM
YDPFP (TMOF peptide) [47],LD50 mM ± S.E.M.,[1],4 1.7 ± 0.4 mM
YDAAP (TMOF peptide) [37],Number of Dead Larvae,[2],0
same,Weight (mg) ± S.E.M.,[2],133 ± 7 mg
same,Weight Reduction (%) ± S.E.M.,[2],18 ± 1%
same,Weight Reduction (%) ± S.E.M.,[2]; listed as 15,18%
same,larval weight and trypsin biosynthesis (in words),[3],Reductions in larval weight and trypsin biosynthesis were observed
same,Weight Gain,[3],179 mg
same,Weight mg ± S.E.M. End,[3],217 ± 9.5 mg
same,Inhibition (% ± S.E.M.) of trypsin biosynthesis,[4],17 ± 1.6%
same,Trypsin μg ± S.E.M.,[4],2.1 ± 0.2 µg
same,LD50 mM ± S.E.M.,[1],3 1.0 ± 0.18 mM
DAA (TMOF peptide) [20],LD50 mM ± S.E.M.,[1],3 0.91 ± 0.06 mM
FDP (TMOF peptide) [26],LD50 mM ± S.E.M.,[1],3 1.98 ± 0.6 mM
YDPAP6 (YDPAPPPPPP; listed as Aedes aegypti) [reference compound],larval growth (larval length) compared with controls,[6]; first instar S. exigua fed TMOF (0 to 100 μg) adsorbed on 50 mg artificial diet blocks for 6 days,did not grow as fast as the controls
same,amount of TMOF fed at which maximum growth inhibition occurred,"[6]; first instar S. exigua, 50 mg diet blocks, 6 days",100 µg
same,Inhibition (% ± S.E.M.) of trypsin biosynthesis,[5]; 0.25 μg/injection,19.5 ± 0.7%
same,Inhibition (% ± S.E.M.) of trypsin biosynthesis,[5]; 0.5 μg/injection,11 ± 1%
same,Inhibition (% ± S.E.M.) of trypsin biosynthesis,[5]; 1 μg/injection,25 ± 2%
same,Inhibition (% ± S.E.M.) of trypsin biosynthesis,[5]; 10 μg/injection,56%
same,LD50 mM ± S.E.M.,[1],3 0.2 ± 0.02 mM
YDLAP (TMOF peptide) [41],LD50 mM ± S.E.M.,[1],3 0.6 ± 0.05 mM
YEPAP (TMOF peptide) [50],LD50 mM ± S.E.M.,[1],3 0.35 ± 0.02 mM
YDFAP (TMOF peptide) [39],Number of Dead Larvae,[2],1
same,Weight (mg) ± S.E.M.,[2],121 ± 7 mg
same,Weight Reduction (%) ± S.E.M.,[2],26 ± 1.5%
same,Weight Gain,[3],164 mg
same,Weight mg ± S.E.M. End,[3],201 ± 12 mg
same,Inhibition (% ± S.E.M.) of trypsin biosynthesis,[4],19 ± 1.5%
same,Trypsin μg ± S.E.M.,[4],2.1 ± 0.2 µg
same,LD50 mM ± S.E.M.,[1],3 0.74 ± 0.13 mM
YDPAFR (TMOF-R analogue peptide) [58],Inhibition (% ± S.E.M.) of trypsin biosynthesis,[5]; 10 μg/injection,0 ± 0%
DPAR (TMOF-R analogue peptide) [60],Inhibition (% ± S.E.M.) of trypsin biosynthesis,[5]; 1 μg/injection,17 ± 2%
same,Inhibition (% ± S.E.M.) of trypsin biosynthesis,[5]; 10 μg/injection,100%
YDPGP (TMOF peptide) [48],Number of Dead Larvae,[2],2
same,Weight (mg) ± S.E.M.,[2],153 ± 10 mg
same,Weight Reduction (%) ± S.E.M.,[2],6 ± 0.4%
same,Weight Reduction (%) ± S.E.M.,[2]; listed as 16,26%
same,larval weight and trypsin biosynthesis (in words),[3],Reductions in larval weight and trypsin biosynthesis were observed
same,Weight Gain,[3],163.1 mg
same,Weight mg ± S.E.M. End,[3],199.8 ± 11 mg
same,Inhibition (% ± S.E.M.) of trypsin biosynthesis,[4],17 ± 1%
same,Trypsin μg ± S.E.M.,[4],2.1 ± 0.1 µg
same,LD50 mM ± S.E.M.,[1],5 1.1 ± 0.18 mM
Y(D)DP (Tyr-[dD]-Pro) [32],LD50 mM ± S.E.M.,[1],3 0.28 ± 0.01 mM
YDPAF (TMOF peptide) [44],LD50 mM ± S.E.M.,[1],3 0.33 ± 0.2 mM
YDPAA (TMOF peptide) [55],LD50 mM ± S.E.M.,[1],3 1.6 ± 0.13 mM
FAP (TMOF peptide) [25],LD50 mM ± S.E.M.,[1],3 3.8 ± 0.23 mM
ADAAP (TMOF peptide) [56],Number of Dead Larvae,[2],0
same,Weight (mg) ± S.E.M.,[2],141 ± 9 mg
same,Weight Reduction (%) ± S.E.M.,[2],7 ± 0.4%
same,Weight Gain,[3],174.1 mg
same,Weight mg ± S.E.M. End,[3],209.7 ± 12 mg
same,Inhibition (% ± S.E.M.) of trypsin biosynthesis,[4],5 ± 0.6%
same,Trypsin μg ± S.E.M.,[4],2.4 ± 0.3 µg
(D)YDPAP ([dY]DPAP) [46],LD50 mM ± S.E.M.,[1],3 0.56 ± 0.03 mM
